Laboratory results published in US5861274A, “Nucleic acids encoding peroxisome proliferator-activated receptor” (The Salk Institute for Biological Studies, priority 1995, dated 1999).
“Also recorded” adds a separate entry of the source.

Assays:
PPARδ = target: T1, PPARδ (Mus musculus, UniProt P35396); test: Cotransfection assay, PPRE3-TK-LUC reporter with CMX-PPARδ; format: cell-based; conditions: CV-1 cells; for activation of PPARδ (reporter expression), in words: 5 μM Wy 14,643, 30 μM linoleic acid or 30 μM LY-171883; for rank order of efficacy of activation, PPARδ: FIG. 4, 5 μM Wy 14,643, 30 μM linoleic acid, 30 μM LY-171883
T1 sequence (P35396 1-440): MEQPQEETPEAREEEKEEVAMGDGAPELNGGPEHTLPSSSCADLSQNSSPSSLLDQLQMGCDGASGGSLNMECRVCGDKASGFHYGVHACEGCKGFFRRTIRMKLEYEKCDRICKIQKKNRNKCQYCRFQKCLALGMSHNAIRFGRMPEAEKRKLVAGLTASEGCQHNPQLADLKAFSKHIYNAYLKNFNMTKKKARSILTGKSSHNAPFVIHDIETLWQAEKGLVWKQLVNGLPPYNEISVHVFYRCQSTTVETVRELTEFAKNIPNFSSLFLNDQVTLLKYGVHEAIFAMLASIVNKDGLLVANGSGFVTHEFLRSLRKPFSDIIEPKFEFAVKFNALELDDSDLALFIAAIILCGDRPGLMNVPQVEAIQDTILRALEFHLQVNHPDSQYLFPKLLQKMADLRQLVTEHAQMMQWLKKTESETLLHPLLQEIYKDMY
Description: (§1) The mammalian expression vectors pCMX-PPARα, pCMX-PPARγ and pCMX-PPARδ were constructed by inserting the cDNA inserts of PPARα, PPARγ, and PPARδ into pCMX as previously described by Umesono et al., in Cell 65:1255-1266 (1991)). Construction of the reporter PPRE3 -TK-LUC has also been previously described by Kliewer et al., (1992) supra. Cotransfection assays in CV-1 cells were done in 48 well plates using N-[1-(2,3-dioleoyloxy)-propyl[N,N,N-trimethylammonium methyl sulfate (DOTAP) according to the manufacturer's instructions (Boehringer Mannheim). Transfections contained […] of receptor expression plasmid vector, 20 ng of the reporter PPRE3 -TK-LUC, 60 ng of pCMX-βGAL (β-galactosidase) as an internal control, and 210 ng of carrier plasmid pGEM. Cells were incubated in the presence of DOTAP for 8 hours, washed, and incubated in the presence of peroxisome proliferators or fatty acids for 36 hours. Cell extracts were prepared and assayed for luciferase and β-galactosidase activity as previously described (Umesono, supra). All experimental points were done in triplicate.

PPARγ = target: T2, PPARγ (Mus musculus, UniProt P37238); test: Cotransfection assay, PPRE3-TK-LUC reporter with CMX-PPARγ; format: cell-based; conditions: CV-1 cells; for activation of PPARγ (reporter expression), in words: 5 μM Wy 14,643, 30 μM linoleic acid or 30 μM LY-171883; for rank order of efficacy of activation, PPARγ: FIG. 4, 5 μM Wy 14,643, 30 μM linoleic acid, 30 μM LY-171883
T2 sequence (P37238 31-475 N383S): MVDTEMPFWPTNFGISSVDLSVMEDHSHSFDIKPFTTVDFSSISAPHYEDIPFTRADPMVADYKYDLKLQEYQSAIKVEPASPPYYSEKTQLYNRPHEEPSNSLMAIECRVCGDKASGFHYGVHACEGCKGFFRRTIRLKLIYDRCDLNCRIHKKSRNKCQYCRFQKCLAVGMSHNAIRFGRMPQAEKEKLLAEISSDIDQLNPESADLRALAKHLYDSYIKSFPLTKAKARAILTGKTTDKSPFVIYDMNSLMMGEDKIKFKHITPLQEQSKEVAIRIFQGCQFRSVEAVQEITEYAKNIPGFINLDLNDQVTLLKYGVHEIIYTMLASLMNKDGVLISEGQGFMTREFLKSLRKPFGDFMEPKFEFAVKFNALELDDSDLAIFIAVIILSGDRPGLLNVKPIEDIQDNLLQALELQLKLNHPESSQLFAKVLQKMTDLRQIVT
Description: Luciferase activities are presented as the fold activation achieved in compound-treated versus mock-treated cells. Similar results were obtained in triplicate in three independent experiments.
as §1

PPARα = target: T3, PPARα (Mus musculus, UniProt P23204); test: Cotransfection assay, PPRE3-TK-LUC reporter with CMX-PPARα; format: cell-based; conditions: CV-1 cells; for rank order of efficacy of activation, PPARα: FIG. 4, 5 μM Wy 14,643, 30 μM linoleic acid, 30 μM LY-171883
T3 sequence (P23204 1-468): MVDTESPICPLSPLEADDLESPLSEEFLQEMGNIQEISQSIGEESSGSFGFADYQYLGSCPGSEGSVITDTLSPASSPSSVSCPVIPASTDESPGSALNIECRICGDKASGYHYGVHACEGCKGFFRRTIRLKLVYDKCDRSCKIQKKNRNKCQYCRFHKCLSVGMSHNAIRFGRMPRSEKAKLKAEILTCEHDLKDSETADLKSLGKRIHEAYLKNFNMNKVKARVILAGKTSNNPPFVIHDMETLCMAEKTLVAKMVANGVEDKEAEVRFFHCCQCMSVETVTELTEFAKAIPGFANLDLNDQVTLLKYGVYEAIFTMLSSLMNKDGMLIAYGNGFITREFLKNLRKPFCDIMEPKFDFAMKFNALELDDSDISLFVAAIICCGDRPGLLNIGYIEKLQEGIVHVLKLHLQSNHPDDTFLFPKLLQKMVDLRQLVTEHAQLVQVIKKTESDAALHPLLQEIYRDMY
Description: as §1

PPARalpha (Mus musculus) = test: cell_activity; conditions: activation by 5 uM Wy 14,643 in CV-1 cells

| Compound | activation of PPARδ (reporter expression), in words (PPARδ) | rank order of efficacy of activation, PPARδ (PPARδ) | activation of PPARγ (reporter expression), in words (PPARγ) | rank order of efficacy of activation, PPARγ (PPARγ) | rank order of efficacy of activation, PPARα (PPARα) | activation of PPARα (reporter expression), in words (PPARα; 5 μM Wy 14,643, 30 μM linoleic acid or 30 μM LY-171883) | activity (PPARalpha (Mus musculus)) [fold] |
| --- | --- | --- | --- | --- | --- | --- | --- |
| CCCc1c(OCCCCc2nnn[nH]2)ccc(C(C)=O)c1O [LY-171883] | strong activators | linoleic acid>LY-171883 and Wy 14,643 | significant activation; also recorded: most efficiently activated | LY 171883>linoleic acid>Wy 14,643 | Wy 14,643>LY-171883>linoleic acid |  |  |
| Cc1cccc(Nc2cc(Cl)nc(SCC(=O)O)n2)c1C [Wy 14,643] |  |  | no activation; also recorded: fail 30 to respond; also recorded: fails to activate | LY 171883>linoleic acid>Wy 14,643 | Wy 14,643>LY-171883>linoleic acid | most efficiently activated |  |
| CCCCC/C=C\C/C=C\CCCCCCCC(=O)O [linoleic acid] | strong activators; also recorded: most efficiently activated | linoleic acid>LY-171883 and Wy 14,643 | no activation | LY 171883>linoleic acid>Wy 14,643 | Wy 14,643>LY-171883>linoleic acid |  |  |
| PPRE3-TK-LUC reporter |  |  |  |  |  |  | > 100 |
